Three compounds from patent US20240002846A1, “COMPOSITIONS AND METHODS FOR THE DIAGNOSIS AND TREATMENT OF ITCH” (Duke University, priority 2020, published 2024) can be followed below.

For assay [1], the system named is mice. Kind of assay: Effect of inhibitor pretreatment on LPA-, LPC- or miR-146a-induced scratching behavior. In kind it is in vivo, mouse.
In assay [2] the test system is vesicular release from mKC. Kind of assay: Vesicular release from cultured mouse keratinocytes (AChE activity). It is filed as cell-based. Particulars: 10 μM. The protocol:
Vesicular release from cultured keratinocytes was quantified by detecting acetylcholinesterase (AChE) activity in the extracellular release fluid. (Gupta et al. Am. J. Physiol. Heart Circ. Physiol. 2007, 292, H3052-3056; Malik et al. Methods Mol. Biol. 2016, 1448, 237-248). CBQCA Protein Quantitation Kit (Molecular Probes, Eugene, OR) was used to assess the total protein amounts of each sample. Quantitation was carried out according to kit instructions (Fluorocet, Systems Biosciences, Palo Alto, CA). Briefly, vesicles were lysed to release esterase enzyme whose activity is measured using a florescence dye, excitation at 544 nm and emission at 590 nm. Fluostar Optima (BMG Labtech, Cary, NC) microplate reader was used to measure esterase activity. 500 ng protein equivalent of input was used per well. To determine the contribution of Rab5a and Rab27a to LPC-induced miR-146a release, cells were pre-treated with the Rab5a (5′-GUAGAAUCAA GUUUCUAAUUCUGAA-3′ SEQ ID NO: 9, 5′-[…]-3′ SEQ ID NO: 10) or Rab27a (5′-AGCUAAAA CUGAGAGCUUCAAACAG-3′ SEQ ID NO: 11, 5′-[…]-3′ SEQ ID NO: 12) siRNA (IDT, Coralville, IA) for 72 h before stimulation. Control cells were treated with scramble siRNA.

In assay [3] the test system is human TRPV4 mutations (R746C, R746G, R746D, K754G, R757G, R774G, and W776G). Kind of assay: Ca2+ imaging in HEK cells transfected with human TRPV4 mutations. It is filed as cell-based. The protocol:
Cell culture and transfection. HEK293 cells (ATCC® CRL-1573) were cultured on poly-D-lysine coated coverslips in 24-well plate containing DMEM media with high-Glucose (Gibco, Gaithersburg, MD) supplemented with 10% fetal bovine serum (FBS, HyClone Laboratories, Logan, UT) and 100 U/mL of penicillin/streptomycin (Gibco, Gaithersburg, MD). Cell cultures were maintained with 5% of CO2 in a humidified incubator at 37° C. HEK cells were transfected with rat or human wild type or mutant TRPV4 channels with EGFP or YFP coupled to their C-termini (1.5 μg of plasmid for excised patch clamp and Ca^2+ imaging and 200 ng for single-channel experiments). The jetPEI™ Polyplus transfection reagent (Polyplus Transfection, New York, NY) for electrophysiology or Lipofectamine™ 2000 Reagent (Invitrogen, Waltham, MA) for Ca^2+ imaging were used for transfections per manufacturer's instructions as previously described (Chen et al. Pain 2014, 155, 2662-2672; Morales-Lazaro et al. Nat. Commun. 2016, 7, 13092). […]
(§1) In vitro and ex vivo Ca^2+ imaging. […] Ratios of emissions were acquired at 0.5 Hz. ΔR/R0 was determined as the fraction of the increase of a given ratio over baseline ratio divided by baseline ratio. […]

Assay [4] relates to rat TRPV4 mutations (R746C, R746G, R746D, K754G, R757G, R774G, and W776G). Nature of the assay: Ca2+ imaging in HEK cells transfected with rat TRPV4 mutations. In kind it is cell-based. As for the experimental part: Cell culture and transfection. HEK293 cells (ATCC® CRL-1573) were cultured on poly-D-lysine coated coverslips in 24-well plate containing DMEM media with high-Glucose (Gibco, Gaithersburg, MD) supplemented with 10% fetal bovine serum (FBS, HyClone Laboratories, Logan, UT) and 100 U/mL of penicillin/streptomycin (Gibco, Gaithersburg, MD). Cell cultures were maintained with 5% of CO2 in a humidified incubator at 37° C. HEK cells were transfected with rat or human wild type or mutant TRPV4 channels with EGFP or YFP coupled to their C-termini (1.5 μg of plasmid for excised patch clamp and Ca^2+ imaging and 200 ng for single-channel experiments). The jetPEI™ Polyplus transfection reagent (Polyplus Transfection, New York, NY) for electrophysiology or Lipofectamine™ 2000 Reagent (Invitrogen, Waltham, MA) for Ca^2+ imaging were used for transfections per manufacturer's instructions as previously described (Chen et al. Pain 2014, 155, 2662-2672; Morales-Lazaro et al. Nat. Commun. 2016, 7, 13092). To investigate whether miR-146a can directly activate TRPV1 channels or indirectly via TLRs, HEK293 cells were transfected with rTRPV1 or co-transfected rTRPV1 with rTLR7, rTLR2, or rTLR6 (Addgene, Watertown, MA) for Ca^2+ imaging assay. Control cells were transfected with GFP or YFP.
Site-directed mutagenesis of TRPV4 channels. TRPV4 sequences of multiple species were aligned using Clustal Omega program. Site-directed mutagenesis to generate point mutations in rat and human TRPV4 channels were carried out using Phusion DNA polymerase enzyme (Salazar et al. Nat. Struct. Mol. Biol. 2009, 16, 704-710; Rosenbaum et al. Neuron 2002, 33, 703-713; Hsieh et al. Methods Mol. Biol. 2013, 978, 173-186), with final sequencing to check for presence of the induced mutation. We introduced the following mutations into the rTRPV4 or hTRPV4 channel: R746C, R746G, R746D, K754G, R757G, R774G, and W776G.
as §1

Assay [5] deals with mice. Kind of assay: Scratching behavior after i.d. injection into dorsal neck skin. The note with it: i.d. into dorsal neck, LPA 18:1 500 μg, LPC 50-500 μg, LPC species at the same dose. It is filed as in vivo, mouse. As for the experimental part: Behavioral assessment. Mice were shaved at the dorsal neck 1 d before experiments. Mice were allowed to acclimate to a Plexiglas chamber for at least 30 min before testing and received intradermal (i.d.) injection of 50 μL of LPA 18:1, LPC, LPC 14:0, LPC 16:0, LPC 18:0, LPC 18:1, miR-146a mimic, miR-146a scramble, ATP or vehicles through a 30-gauge needle (Becton Dickinson, Franklin Lakes, NJ) into the neck skin. After injections, mice were immediately placed back to the chamber, and the scratching behavior was recorded by a Panasonic video camera for 30 min. Hind limb scratching behavior directed toward the injected area at the nape of neck was observed. One scratch is defined as a lifting of the hind limb toward the injection site and then a replacing of the limb back to the floor, regardless of how many scratching strokes take place between those two movements. Behavioral analysis was conducted by observers blinded to genotype.

Entries after “also recorded” stand apart in the source; their conditions may differ. Read-outs that look alike come from different tables or passages of the source.

In the case of `Cc1c(C(=O)Nc2cccc(C(F)(F)F)c2)cc(-c2ccccc2)n1CCCN1CCOCC1` [HC067047], the “effect on LPC-induced itch (TRPV4 inhibitors)” value in assay [1] (WT mice, i.p. pretreatment 20 mg/kg) was “a reduction”; in assay [1] (WT mice, i.p. pretreatment 20 mg/kg, listed as HC067), “significantly reduced”. The “effect on LPA (18:1)-induced itch” value in assay [1] (WT mice, i.p. pretreatment 20 mg/kg, LPA 500 μg i.d.) is reported as “no significant reduction in scratching; also recorded: not significantly altered”.

Turning to `N#CC(=C(/N)Sc1ccccc1N)/C(C#N)=C(\N)Sc1ccccc1N` [U0126], the “effect of U0126 on LPC-induced vesicular release” value in assay [2] was “completely eliminated”. In addition, the “effect on LPC-induced itch (MEK inhibitor)” value in assay [1] (i.d. pretreatment 20 μg/50 μL) is listed as “significant reduction; also recorded: significantly attenuated”.

LPC 18:1: the “Ca2+ signal induced by 10 μM LPC 18:1 in TRPV4 mutants vs hTRPV4” value in assay [3] is reported as “drastically reduced”. Besides, the “Ca2+ signal induced by 10 μM LPC 18:1 in TRPV4 mutants vs rTRPV4” value is listed as “drastically reduced” in assay [4] and “significantly reduced potency” in assay [4] (listed as LPC (18:1)). The figures for the “scratching behavior (itch) induced by i.d. injection of lipid” value in assay [5] and in assay [5] (listed as LPC (18:1)) were “caused robust itch; also recorded: most potent” and “the most potent”, respectively.
